ChEMBL document CHEMBL4041485, “Bissubvilides A and B, Cembrane-Capnosane Heterodimers from the Soft Coral Sarcophyton subviride” (J Nat Prod, 2016)
Structures can show the parent of a compound that is named as a salt.

Key:
Assay type in all cases: functional, cell-based
Huh-7 = experiment: Cytotoxicity against human HuH7 cells by CCK-8 assay
MG-63 = experiment: Cytotoxicity against human MG63 cells by MTT assay
A549 = experiment: Cytotoxicity against human A549 cells by MTT assay

SMILES	IC50 (Huh-7)	IC50 (MG-63)	IC50 (A549)
COc1cccc2c1C(=O)c1c(O)c3c(c(O)c1C2=O)C[C@@](O)(C(=O)CO)C[C@@H]3O[C@H]1C[C@H](N)[C@H](O)[C@H](C)O1 [DOXORUBICIN HYDROCHLORIDE]	14.8 µM	2.2 µM	2.9 µM
C=C(C)/C1=C/[C@H]2[C@@](C)(O)CC[C@]2(O)[C@@]2(C)CC[C@@H]3CC(C)=C4CCC5=CCC[C@@](C)(OC5=O)[C@@H](O)CC/C(C)=C/[C@@H]4[C@]3(CC1)C(=O)O2	> 50 µM	> 30 µM	> 25 µM
CC1=C2CCC3=CCC[C@@](C)(OC3=O)[C@@H](O)CC/C(C)=C/[C@@H]2[C@@]23CC/C(C(C)C)=C\[C@H]4[C@@](C)(O)CC[C@]4(O)[C@@](C)(CC[C@@H]2C1)OC3=O	> 50 µM	> 30 µM	> 25 µM
